According to patent publication US6083987A, “Phenylenediamine derivative, radical scavenger, brain-infarction depressant, and brain-edema depressant” (Shiseido Co., Ltd., priority 1998, dated 2000):

Experiments:
[1] = tested on: middle cerebral artery (MCA) infarction model; test: Brain Infarction Inhibition Test (MCA infarction model); format: in vivo, rat (Crj:Fischer-344 line male); conditions: for Brain infarction inhibitory ratio: dose was 100 mg/kg, 2 hours ischemia, 2 hours reperfusion, i.p. 20 minutes before or i.v. simultaneously with reperfusion, * p < 0.05
Experimental: Brain Infarction Inhibition Test i) Meaning The brain infarction inhibitory activity in vivo is studied. According to this test, it can be judged whether the peripherally administered sample compound can pass through the blood-brain barrier or not. ii) Method For the experiment, 9 to 10-week-old Crj:Fischer-344 line male rats were used. Each of all the soluble sample compounds was dissolved in a physiological saline and then administered intravenously or intraperitoneally. Each of insoluble ones was suspended in a physiological saline containing 0.1% Tween 80 and administered intraperitoneally. Also, those dissolved in a physiological saline containing 0.5% Tween 80 were used for intravenous administration. The intraperitoneal administration was effected 20 minutes before reperfusion, whereas the intravenous administration was effected simultaneously with reperfusion. As a control, only the base was administered. The surgical operation was effected in a manner similar to method of Koizumi et al. (Japanese Journal of Stroke, vol. 8, pp. 1-8, 1986) so as to form a middle cerebral artery (MCA) infarction model. Namely, the rat was subjected to inhalation anesthesia with 4% halothane and then, while the anesthesia was maintained with 1% halothane, fixed on face-up position. The neck portion was subjected to median incision such that the common carotid artery and outer carotid artery around the right carotid artery branching portion were separated from their surrounding connecting tissues and then ligated with a silk string. Further, the inner carotid artery starting portion was surrounded by a silk string so as to be ready for ligation and fixation which would be effected after insertion of an embolus. Then, the common carotid artery was incised and, from there, an embolus having a length of about 16 mm, in which a 4-0 surgical nylon string had been coated with a dental impression material, was inserted toward the inner carotid artery and its end near the nylon string was ligated and fixed to the inner carotid artery with the above mentioned silk string. Also, during the surgical operation, the body temperature was maintained by a small animal body temperature control apparatus in order to prevent it from lowering upon the whole anesthesia processes. According to the foregoing operation, brain ischemia was effected for 2 hours and then the embolus was pulled out so as to effect reperfusion. The brain was taken out two hours after the reperfusion and then 4 pieces of crown-like separated strips were prepared by 2-mm intervals from the lambda level toward the downstream. These strips were immersed in 2% triphenyltetrazorium chloride (TTC) solution and incubated at 37° C., for 10 minutes. Thus dyed brain strips were immersed in a phosphate-buffered 8% formalin solution for 1 to 2 days and then photographed under a stereo-microscope ([…]). Thereafter, for each crown-like strip, the area of infarction region was measured by Planimeter ([…]) Judgment Standard The effects of the sample compound were represented by its individual inhibitory rate (%) which used the total area of the infarction regions, which had not been dyed with TTC in the 4 strips. The significance test was effected by student t-test. individual inhibitory rate(%)={1-(value in sample group/value in control group)}×100

rat brain homogenate = test: Lipid Peroxidation Inhibition Test; format: biochemical, rat (SD-line male); conditions: 1 μM sample compound, pH 7.4, 1 hour at 37° C., TBA method
Text: Lipid Peroxidation Inhibition Test
In an automatic oxidation system using a rat brain homogenate, whether a sample compound having a radical-eliminating effect can actually have a lipid peroxidation inhibitory activity or not is investigated and its effectiveness is comparatively studied.
With reference to method of Shimamoto et. al. (Clinical Study of Free Radical, vol. 1, pp. 91-95, 1987), the following method was used. An SD-line male rat (7-week-old) was bled to death with a physiological saline perfusion under pentobarbital anesthesia. Then, its hemisphaerium cerebri was taken out and, while being cooled with ice, a 19-fold amount of 20 mM phosphoric acid buffer (pH 7.4) was added thereto. The resulting mixture was homogenized. To this mixture, 1 μM of the sample compound was added. After the resulting mixture was incubated for 1 hour at 37° C., the amount of generated lipid peroxide was determined by TBA method. Namely, to 0.2 ml of the homogenate, 0.2 ml of 8.1% SDS, 1.5 ml of 20% acetic acid buffer (pH 3.5), and 1.5 ml of 0.8% TBA reagent were added. The resulting mixture was incubated for 1 hour at 95° C. and then rapidly cooled with ice. Subsequently, 1 ml of distilled water and 5 ml of n-butanol/pyridine mixed solution (15:1, v/v) were added thereto and the mixture was stirred. After the mixture was centrifuged, the butanol layer was collected therefrom and its absorbance (a) at 535 nm was measured as compared with a blank. Also, as a reference liquid, a 10 μM solution of 1,1,3,3-tetraethoxypropane (TEP) was added in place of the brain homogenate and its absorbance (A) was measured in a similar manner. In the blank, a phosphoric acid buffer was used in place of the brain homogenate. The peroxide concentration was calculated by the following equation and defined as the brain lipid peroxide amount: […]
peroxide concentration (nmol/g wet weight)=a/A×100
The sample compound was used as being dissolved in dimethylsulfoxide (DMSO). While the final concentration of DMSO was 2%, no influence upon the present system was observed.
The lipid peroxidation inhibitory rate of the sample compound at the concentration of 1 μM was calculated from the amount of increase in lipid peroxide in solvent-added group (M) and that in sample compound added group (m): […]
lipid peroxidation inhibitory rate (%)={1-(m/M)}×100

[2] = tested on: MCA infarction reperfusion model; test: Brain Edema Inhibition Test (MCA infarction reperfusion model); format: in vivo, rat (Fischer); conditions: dose was 100 mg/kg; i.p. 20 minutes before reperfusion; two-hour ischemia and two-hour reperfusion; brain moisture content
Text: Brain Edema Inhibition Test
The brain edema inhibitory activity in vivo is confirmed. According to this test, it can be judged whether the peripherally administered sample compound can pass through the blood-brain barrier or not.
By using a 7 to 9-week-old Fischer rat (Charles River Japan Inc.), an MCA infarction reperfusion model was formed according to method of Koizumi et al. (Japanese Journal of Stroke, vol. 8, pp. 1-8, 1986). Namely, the rat was fixed face-up position under anesthesia with 2% halothane and then its neck portion was subjected to median incision so as to separate the right common carotid artery therefrom to the carotid artery branching portion while carefully keeping the vagus nerve. The outer carotid artery and inner carotid artery around the carotid artery branching portion were separated from their surrounding connecting tissues. Then, the common carotid artery and outer carotid artery were ligated with a silk string. Further, the inner carotid artery starting portion was surrounded by a silk string so as to be ready for ligation and fixation which would be effected after insertion of an embolus string. Then, the common carotid artery was incised and, from there, an embolus string was inserted toward the inner carotid artery by about 15 to 16 mm and then ligated and fixed to the inner carotid artery with the above mentioned silk string. As a result of the foregoing operation, the tip of the embolus string proceeded beyond the MCA branching portion so as to enter the anterior cerebral artery by about 1 to 2 mm and formed infarction at the MCA inlet by the body portion of the embolus string. After the embolus string blocking the MCA starting portion was left for a predetermined time, it was pulled out under halothane anesthesia to effect reperfusion. Here, in this model, since the right common carotid artery has been ligated, the blood flow is supposed to be restarted from the left inner carotid artery and vertebral-basilar by way of the anterior and posterior communicating arteries. This experiment effected two-hour ischemia and two-hour reperfusion.
Here, the embolus string was prepared in the following manner. Namely, a tip of a 4-0 surgical nylon string having a total length of 16 mm was held over an alcohol lamp so as to form a ball with a diameter of 0.2 to 0.3 mm and then a length of about 5 mm on the nearer side therefrom was coated with a dental impression material with reference to the size of the ball, thereby forming the embolus string.
The brain moisture content was measured by wet and dry weight method. […] Further, after being dried at 110° C. for 24 hours, their weight was measured again to yield dry weight. From thus obtained wet weight and dry weight, the brain moisture content was determined by the following equation: […]

[3] = Radical Eliminating Effect Test (DPPH); format: biochemical; conditions: 10 μM sample compound, 0.1 mM DPPH, pH 5.5, 30 minutes, room temperature
Experimental: Radical Eliminating Effect Test (DPPH)
Radical-eliminating ability of a sample drug is studied in terms of its reaction amount and reactivity with respect to α, α-diphenyl-β-picrylhydrazyl (DPPH) which is a stable radical.
Method of Uchiyama et al. (Japanese Journal of Pharmacology, vol. 88, pp. 678-683, 1968) was used. Namely, to a solution containing 20 mM acetic acid buffer (pH 5.5), 60% ethanol, and 10 μM of a sample compound, DPPH was added so as to yield a concentration of 0.1 mM. The resulting mixture was stirred and then its change in absorbance (ABS) at 517 nm was measured for 30 minutes at room temperature. Here, the sample compound was used as being dissolved in dimethylsulfoxide (DMSO). While the final concentration of DMSO was 10%, no influence upon the present system was observed.
The DPPH reducing ratio of the sample compound at the concentration of 10 μM was calculated by the following equation:
reducing ratio (%)={1-(ABS after 30 minutes/initial ABS)}×100

| SMILES | Brain infarction inhibitory ratio [1] | Lipid peroxidation inhibitory ratio (rat brain homogenate) | Brain edema inhibitory ratio [2] | DPPH reducing ratio [3] | brain infarction inhibition activity, in words ([1]; rat, in vivo) |
| --- | --- | --- | --- | --- | --- |
| CC(C)Cc1cc(C(=O)Nc2ccc(N(C)C)cc2)ccc1O [Example 1] | 53.0% | 40.1% | 2.0% | 22.9% | – |
| CC(C)Cc1ccc(O)c(C(=O)Nc2ccc(N(C)C)cc2)c1 [Example 2] | 41.2% | 26.8% | – | 17.7% | – |
| CC(C)Cc1cccc(C(=O)Nc2ccc(N(C)C)cc2)c1O [Example 3] | – | 22.7% | – | 22.5% | – |
| CC(C)Cc1ccc(C(=O)Nc2ccc(N(C)C)cc2)cc1O [Example 4] | – | 13.5% | – | 16.4% | – |
| CC(C)Cc1nccc(C(=O)Nc2ccc(N(C)C)cc2)c1O [Example 5] | 19.0% | 29.5% | 38.1% | 16.1% | – |
| COc1ccc(COc2ccc(C(=O)Nc3ccc(N(C)C)cc3)cc2CC(C)C)cc1 [Example 6] | – | 41.7% | 1.5% | 25.1% | – |
| COc1ccc(C(=O)Nc2ccc(N(C)C)cc2)cc1CC(C)C [Example 7] | – | 48.9% | – | 20.7% | – |
| CC(C)=CCC/C(C)=C/COc1ccc(C(=O)Nc2ccc(N(C)C)cc2)cc1CC(C)C [Example 8] | – | 41.7% | – | 21.2% | – |
| CC(C)Cc1cc(C(=O)Nc2ccc(N(C)C)cc2)ccc1OCc1ccccc1 [Example 9] | 39.9% | 28.1% | 19.2% | 25.5% | – |
| CC(C)Cc1cccc(C(=O)Nc2ccc(N(C)C)cc2)c1OCc1ccccc1 [Example 10] | 18.7% | 28.2% | – | 11.5% | showed brain infarction inhibition tendency |
| CC(C)Cc1cc(S(=O)(=O)Nc2ccc(N(C)C)cc2)ccc1O [Example 12] | 0.7% | 24.2% | – | 61.8% | – |
| CC(C)Cc1cc(S(=O)(=O)Nc2ccc(N(C)C)cc2)ccc1OC(=O)c1ccccc1 [Example 13] | – | 13.4% | – | 58.9% | – |
| CC(C)Cc1cc(C(=S)Nc2ccc(N(C)C)cc2)ccc1O [Example 14] | – | 33.9% | – | 18.3% | – |
| CC(C)Cc1cc(CC(=O)Nc2ccc(N(C)C)cc2)ccc1OCc1ccccc1 [Example 15] | 2.8% | 24.8% | – | 12.8% | – |
| CC(C)Cc1cc(CC(=O)Nc2ccc(N(C)C)cc2)ccc1O [Example 16] | – | 14.4% | – | 21.0% | – |
| CC(C)Cc1cccc(CC(=O)Nc2ccc(N(C)C)cc2)c1O [Example 17] | – | 10.4% | – | 18.7% | – |
